Reference: patent US20130324522A1, “INSECT ODORANT RECEPTOR ANTAGONISTS” (THE ROCKEFELLER UNIVERSITY, priority 2010, published 2013)
Read-outs that look alike come from different tables or passages of the source.

Key:
Or47a/Or83b = target: T1, Or47a/Or83b (Drosophila melanogaster, UniProt P81921+Q9VNB5); test: Ca2+-imaging of stable Flip-In T-Rex cell line Or47a/Or83b; assay type: cell-based; conditions: for inhibition at 4 µM: read-out: Percent Inhibition OR47a OR83b; for IC50: read-out: IC50 OR47a
T1 construct: Full-length cDNAs for mosquito (Anopheles gambiae) odorant receptor (OR1, OR2, OR7, OR8, OR28), and fly (Drosophila melanogaster) odorant receptor (Or47a, Or83b); expressed in transfected cells
T1 sequence (P81921 1-385): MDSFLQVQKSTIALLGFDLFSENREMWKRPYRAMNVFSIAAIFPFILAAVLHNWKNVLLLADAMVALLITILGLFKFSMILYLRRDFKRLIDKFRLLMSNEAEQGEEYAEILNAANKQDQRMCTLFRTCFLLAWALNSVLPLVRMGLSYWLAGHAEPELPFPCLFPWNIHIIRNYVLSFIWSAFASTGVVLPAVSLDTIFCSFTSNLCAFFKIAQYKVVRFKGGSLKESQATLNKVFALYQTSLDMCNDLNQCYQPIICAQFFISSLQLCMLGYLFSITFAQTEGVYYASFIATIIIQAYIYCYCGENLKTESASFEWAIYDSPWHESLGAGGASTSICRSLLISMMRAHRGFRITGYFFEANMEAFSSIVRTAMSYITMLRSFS
T1 sequence (Q9VNB5 1-486): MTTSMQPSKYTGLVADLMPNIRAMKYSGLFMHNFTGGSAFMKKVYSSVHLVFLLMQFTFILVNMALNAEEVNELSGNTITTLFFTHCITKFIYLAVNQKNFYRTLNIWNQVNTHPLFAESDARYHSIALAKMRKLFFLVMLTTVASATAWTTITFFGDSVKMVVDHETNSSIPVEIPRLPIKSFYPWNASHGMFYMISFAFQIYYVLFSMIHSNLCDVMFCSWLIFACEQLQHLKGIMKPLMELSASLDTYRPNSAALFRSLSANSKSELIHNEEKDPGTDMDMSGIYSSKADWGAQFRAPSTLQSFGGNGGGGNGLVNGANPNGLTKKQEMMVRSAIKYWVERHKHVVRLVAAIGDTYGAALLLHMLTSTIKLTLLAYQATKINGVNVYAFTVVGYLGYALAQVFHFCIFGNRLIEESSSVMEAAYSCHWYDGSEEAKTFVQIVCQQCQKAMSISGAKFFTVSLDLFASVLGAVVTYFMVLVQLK
In short: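 Flp-In T-REx stable lines (Drosophila Or47a/Or83b or mouse 5HT3), 10,000 cells/well cultured 2 days, induced with tetracycline 1 day before assay.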

OR10/OR7 = OR10/OR7 (Anopheles gambiae, UniProt B5U0U7+Q7QCC7); test: Ca2+-imaging of stable HEK293T cell line OR10/OR7; assay type: cell-based; conditions: for inhibition at 4 µM: HEK-293T, compound applied at 4 μM, read-out: Percent Inhibition OR10 OR7; for IC50: Table B, read-out: IC50 OR10
OR10/OR7, sequence (Q7QCC7 whole entry): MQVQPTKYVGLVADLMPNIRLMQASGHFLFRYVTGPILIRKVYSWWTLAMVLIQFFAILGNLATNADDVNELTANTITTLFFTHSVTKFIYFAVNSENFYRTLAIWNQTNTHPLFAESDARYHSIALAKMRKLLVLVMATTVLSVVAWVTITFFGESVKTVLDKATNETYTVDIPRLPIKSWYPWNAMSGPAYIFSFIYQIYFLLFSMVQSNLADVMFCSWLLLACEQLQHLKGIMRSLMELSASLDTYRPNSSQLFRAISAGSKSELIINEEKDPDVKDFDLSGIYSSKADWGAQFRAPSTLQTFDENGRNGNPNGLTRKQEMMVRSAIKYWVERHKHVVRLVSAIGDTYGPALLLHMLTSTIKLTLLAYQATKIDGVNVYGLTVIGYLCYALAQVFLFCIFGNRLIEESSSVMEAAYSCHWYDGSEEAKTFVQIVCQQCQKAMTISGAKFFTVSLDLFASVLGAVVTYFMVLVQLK
OR10/OR7, sequence (B5U0U7 entry or part of it): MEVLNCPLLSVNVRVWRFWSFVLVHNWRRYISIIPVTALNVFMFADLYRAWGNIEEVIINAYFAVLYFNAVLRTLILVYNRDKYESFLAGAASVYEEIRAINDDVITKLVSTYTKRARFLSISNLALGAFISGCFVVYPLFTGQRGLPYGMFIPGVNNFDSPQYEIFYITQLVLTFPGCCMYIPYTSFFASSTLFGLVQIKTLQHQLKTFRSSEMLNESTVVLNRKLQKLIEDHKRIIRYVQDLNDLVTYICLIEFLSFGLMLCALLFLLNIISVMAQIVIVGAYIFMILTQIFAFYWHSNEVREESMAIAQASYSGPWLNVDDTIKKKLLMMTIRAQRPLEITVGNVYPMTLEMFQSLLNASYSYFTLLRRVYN
In short: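 Stable HEK293T line co-expressing OR10/OR7, plated 2 days on poly-D-lysine, loaded with Ca-4 dye 1.5 hr at room temperature. Compounds premixed into odorant in HBSS and applied on FDSS6000. Ca2+ rise followed by fluorescence at 525 nm (excitation 485 nm).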

Structure (SMILES)	inhibition at 4 µM (Or47a/Or83b; compound applied at 4 μM)	inhibition at 4 µM (OR10/OR7)	IC50 (Or47a/Or83b; Table B)	IC50 (OR10/OR7)	IC50 (Or47a/Or83b)	inhibition at 4 µM (Or47a/Or83b)
COc1ccc(-c2nnc(SCc3ccc(C#N)cc3)n2-c2ccc(C)cc2)cc1 [RU-0046426]	26 to 50%	26 to 50%				
CCOc1ccccc1C(=O)NNC(=O)COc1cc(C)cc(C)c1 [RU-0023245]	> 75%	26 to 50%	> 1000 nM	> 1000 nM		
CC(NC(=O)c1cc2n(n1)CCN(Cc1c(Cl)cccc1Cl)C2=O)c1ccccc1 (centres unmarked) [RU-0045115]	26 to 50%	< 25%				
COC(=O)C(Cc1ccccc1)NC(=O)C1CC1(c1ccccc1)c1ccccc1 (centres unmarked) [RU-0028029]	> 75%	26 to 50%	> 1000 nM			
COCCCN(CC(=O)N1CCc2sccc2C1c1ccc(OC)cc1)C(=O)C(C)(C)CCl (centres unmarked) [RU-0069950]	51 to 74%	> 75%	> 1000 nM	< 100 nM		
Cc1cc(C)c2c(c1C(=O)N1CCC3(CC1)C(=O)NCN3c1ccccc1)CC(C)(C)C2=O [RU-0025771]		26 to 50%			> 1000 nM	> 75%
Cc1ccc(CN(CCc2ccccc2)C(=O)CN(C(=O)NC(C)(C)C)C(C)C)o1 [RU-0072008]	26 to 50%	> 75%		< 100 nM		
COc1ccccc1N1CCN(C(=O)c2cc3n(n2)CCN(Cc2c(F)cccc2Cl)C3=O)CC1 [RU-0043595]	51 to 74%	< 25%	> 1000 nM			
COCCNC(=O)c1ccc(CSc2nnc(-c3ccc(C)cc3)n2-c2ccccc2F)cc1 [RU-0051652]	< 25%	26 to 50%				
COCCN(Cc1cc(Cl)ccc1OS(=O)(=O)c1ccc(F)cc1)C(=O)C1CCC1 [RU-0035287]	51 to 74%	< 25%	< 100 nM			
COc1nc(NC(C)C)nc(NC(C)C)n1 [RU-0001534]	51 to 74%	< 25%	> 1000 nM			
O=C1CN(S(=O)(=O)c2c(F)cc(F)cc2F)CC2c3cccc(F)c3CCN12 (centres unmarked) [RU-0076832]	< 25%	26 to 50%				
COc1ccc(N2CCN(C(=O)C3CC=CCC3C(=O)NC(c3ccccc3)c3ccccn3)CC2)cc1 (centres unmarked) [RU-0026507]	26 to 50%	< 25%				
COc1ccc(C(=O)c2ccccc2)c(O)c1O [RU-0001617]	51 to 74%	51 to 74%	> 1000 nM	< 100 nM		
COc1ccc(N2CCN(C(=O)C3CC=CCC3C(=O)NCCCCc3ccccc3)CC2)cc1 (centres unmarked) [RU-0026167]	51 to 74%	26 to 50%	> 1000 nM			
CC(NCc1ccccc1)c1nc2ccccc2c(=O)n1-c1ccc(Cl)cc1 (centres unmarked) [RU-0072535]	26 to 50%	< 25%				
CCOCCCN(CC(=O)N(Cc1ccc2c(c1)OCO2)Cc1sccc1C)C(=O)NC(C)(C)C [RU-0052340]	26 to 50%	51 to 74%		< 100 nM		
C=C[C@@](C)(O)CCC1C(=C)CCC2[C@@](C)(CO)CCC[C@]12C (some centres unmarked) [RU-0001327]	< 25%	51 to 74%		> 1000 nM		
COCCCN(CC(=O)N1CCc2sccc2C1COc1cccc(OC)c1)C(=O)c1ccccc1OC (centres unmarked) [RU-0036294]	51 to 74%	51 to 74%		> 1000 nM		
Cc1ccc(-n2nc(C)c(CCC(=O)N3CCc4ccccc4C3)c2C)cc1Cl [RU-0026074]	51 to 74%	26 to 50%	> 1000 nM			
COc1cc(OC)cc(C2NC(=O)N(C)C3=C2C(=O)N(C2CCCCC2)C3)c1 (centres unmarked) [RU-0047750]	26 to 50%	> 75%		< 100 nM		
CCOC(=O)C(c1ccc(OC)c(OC)c1)C1C=CC(NC(=O)c2ccc3c(c2)OCO3)C1 (centres unmarked) [RU-0049030]	26 to 50%	26 to 50%				
COc1nc(OCC#N)nc(N2CCCCC2)n1 [RU-0006256]	51 to 74%	51 to 74%	> 1000 nM	> 1000 nM		
COCCCN(CC(=O)N1CCc2sccc2C1COc1cccc(OC)c1)C(=O)Cc1ccccc1 (centres unmarked) [RU-0036264]	< 25%	< 25%				
CCN(CC)C(=O)Oc1ccc2c(ccn2Cc2cccc(C)c2)c1NC(=O)[C@H](C)OC(C)=O [RU-0075468]	< 25%	26 to 50%		< 100 nM		
CN(Cc1ccccc1)C(=O)CCC1CCN(C(=O)CCOc2ccccc2)CC1 [RU-0028727]	> 75%	51 to 74%	< 100 nM	> 1000 nM		
CCOC(=O)C(c1cccc(OC)c1)C1C=CC(NC(=O)c2cccs2)C1 (centres unmarked) [RU-0074560]	26 to 50%	< 25%				
Cc1ccc(CN(Cc2ccc(F)cc2)C(=O)CN(C(=O)NC(C)(C)C)C2CC2)s1 [RU-0052360]	26 to 50%	> 75%		> 1000 nM		
CN(C)c1nc(N(C)C)nc(N(C)C)n1 [RU-0000619]	51 to 74%	< 25%	> 1000 nM			
CCCCc1nc(CN2CCc3c([nH]c4ccccc34)C2c2cccc(OC)c2OC)c[nH]1 (centres unmarked) [RU-0031879]	51 to 74%	< 25%	> 1000 nM			
